Legend:
[1] = test system: 266 capture antibody and 10D5 reporter antibody; experiment: βAP cross-reactivity in 266/10D5 sandwich ELISA; type: binding; conditions: molecule at 1-1000 ng/ml
Method: Monoclonal antibody 266 was diluted to a concentration of 5 µg/ml, and monoclonal antibody 067 to 10 µg/ml in a buffer containing NaH2PO4·7H2O, 26.2 g/L; NaN3, 1 g/L; pH 8.3. One hundred µl/well of this solution was then dispensed in a 96 well polystyrene transparent COSTAR plate and incubated overnight at room temperature. Following coating, the remaining solution was aspirated and the non-specific antibody binding sites were blocked with 0.25% human serum albumin (HSA) dissolved in a buffer containing NaH2PO4·H2O, 1 g/L; Na2HPO4·7H2O, 10.8 g/L; NaN3, 0.5 g/L and sucrose, 25 g/L; pH 7.4. These coated/blocked plates were used immediately or dried in a desiccator and stored in a dry container at 4°C for a maximum of 5 days.
Calibrators containing known amounts of βAP and samples from various bodily or extra bodily fluids were then added to the plate at 100 µl/well. The samples were added undiluted or diluted in a buffer containing NaH2PO4·H2O, 0.2 g/L; Na2HPO4·7H2O, 2.16 g/L; NaN3, 0.5 g/L; BSA (globulin free) 6 g/L; Triton X-405, 0.5 mL/L; NaCl, 8.5 g/L; pH 7.4. Samples and calibrators were incubated in the wells for 1 hour at room temperature, subsequently aspirated, and the wells washed with 300 µl/well of a solution containing NaCl, 80 g/L; KCl, 3.8 g/L; Tris base, 5.85 g/L; Tris HCl, 31.75 g/L; and 0.05% Tween® 20; pH 7.5 (TBS).
NHS-biotin (15 mg) was dissolved in 0.25 ml dimethylsulfoxide, and 10 µl of this solution was added to 1 mg of 10D5 or 6C6 antibody suspended in 1 ml of sodium carbonate solution, 50 mM, pH 8.5. The mixture was incubated in the dark for 1½ hours at room temperature and then dialyzed against phosphate buffered saline, pH 7.4 for 48 hours at 4°C, to produce biotinylated reporter antibody. One hundred µl/well of the biotinylated reporter antibody (10D5 or 6C6) diluted to 3 µg/ml was then added to each well and incubated for another hour at room temperature. The antibody diluent consisted of Trizma base, 1.21 g/L; NaCl, 29.22 g/L; NaN3, 1.5 g/L, Triton X 405, 0.5 ml/L; PEG (Mw 3350), 40 g/L; Mg Cl2·6H2O, 0.095 g/L; ZnCl2, 0.014 g/L; fetal bovine serum 100 ml/L; and BSA 2.5 g/L, pH 7.4.
After 1 hour incubation at room temperature with the reporter antibody (10D5 or 6C6) the supernatant was aspirated and the wells were washed three times with 300 µl/well of TBS. Streptavidin alkaline phosphatase (100 µl/well, diluted 1:2000 in the conjugate diluent buffer) was added and incubated for another hour at room temperature. […] Fluorescent substrate (4-methyl-umbellipheryl phosphate in 2-amino-2-methyl […] buffer; pH 9.5; (100 µl/well) was added) and fluorescence read and expressed as relative fluorescent units ([…]) after 15 minutes using a Cytofluor 2300 from Millipore, with 360/40 excitation filter and 460/40 emission filter. […]

[2] = test system: Monoclonal antibodies to the junction region of βAP; experiment: Saturation analysis (RIA): displacement of 125I-labeled βAP1-28 from junction-region hybridoma clones by unlabeled peptide; type: binding, mice
Method: The RIA method used to screen serum bleeds and fusion hybridoma supernatants was based upon a method developed by Wang et al. (1977) J. Immunol. Methods 18:157-164. Briefly, the supernatant (or serum) was incubated overnight at room temperature on a rotator with ^125I-labeled βAP1-28 and Sepharose® 4B beads to which sheep anti-mouse IgG had been coupled via cyanogen bromide. The beads from each well were harvested onto glass fiber filter discs with a cell harvester and washed several times with PBS. The filter discs were then transferred to gamma tubes and the bound radioactivity was counted in a gamma counter.
Based on results of the above assays, several clones were expanded into 24 well plates. These clones were further characterized by saturation analysis. Supernatants at the 50% titer point (as determined by the RIA method described above) were added to wells containing Sepharose®-sheep anti-mouse IgG beads, a constant amount of ^125I-labeled βAP1-28, and varying amounts of unlabeled βAP13-28 or βAP17-28. The concentration of cold peptide for 50% inhibition was determined for each antibody. […] The 50% inhibition point for βAP13-28 ranged from 10-80 ng/well. The clones were also characterized based on reactivity in Western blots. Based on titer point, sensitivity (as determined by the 50% inhibition point), and reactivity on Western blot, several clones were produced in ascites.

| Substance | %Cross-Reactivity [1] | also measured |
| --- | --- | --- |
| βAP Fragment 15-20 (QKLVFF; Amyloid-beta protein 42; UniProt P05067 686-691, looked up, fragment) | 0% |  |
| βAP Fragment 11-18 (EVHHQKLV; Amyloid-beta protein 42; UniProt P05067 682-689, looked up, fragment) | 0% |  |
| βAP Fragment 13-18 (HHQKLV; Amyloid-beta protein 42; UniProt P05067 684-689, looked up, fragment) | 0% |  |
| βAP17-28 (LVFFAEDVGSNK; Amyloid-beta protein 42; UniProt P05067 688-699, looked up, fragment) |  | inhibition of 125I-labeled βAP1-28 binding ([2]; at 100 ng/well, any clones): no inhibition |
| βAP13-28 (HHQKLVFFAEDVGSNK; Amyloid-beta protein 42; UniProt P05067 684-699, looked up, fragment) |  | concentration of cold peptide for 50% inhibition ([2]; range over the clones, supernatants at the 50% titer point, 125I-labeled βAP1-28): 10-80 ng/well |
| βAP Fragment 13-20 (HHQKLVFF; Amyloid-beta protein 42; UniProt P05067 684-691, looked up, fragment) | 0.2% |  |

Reference: patent EP0667959B1, “Methods for identifying inhibitors of the production of beta-amyloid peptide” (ELAN PHARMACEUTICALS, INC., priority 1992, dated 1994)
